Laboratory results as given in patent US20250296961A1, “ANTIMICROBIAL PEPTIDES FOR REMINERALIZATION OF TEETH AND PREVENTION OF DENTAL CARIES” (The University of Hong Kong, priority 2021, published 2025).
Like-named read-outs stand apart in the source and are kept apart here.

Legend:
S. gordonii = experiment: Anti-planktonic bacterial ability, MBC (Example 2); format: cell-based, S. gordonii (ATCC 35105)
Experimental: S. mutans (ATCC 35668, ATCC, Manassas, USA), S. gordonii (ATCC 35105, ATCC, Manassas, USA), and S. sanguinis (ATCC 10556, ATCC, Manassas, USA) strains were cultured in brain-heart infusion broth (BHI, Difco Laboratories, Detroit, USA) at 37° C. under anaerobic conditions (85% N2, 10% H2, and 5% CO2). Bacteria were harvested by centrifugation (5000 rpm, 10 min), washed once with sodium phosphate-buffered saline (PBS, 10 mM, pH=7.2), and resuspended in BHI at a concentration of 1×10^6 CFU mL^−1.
Each well was seeded with 10 μL S. mutans suspension, S. gordonii suspension, and S. sanguinis suspension, respectively. […] The bacterial growth was assessed by measuring the absorbance at 595 nm using a microplate reader after a 24-hour incubation. Subsequently, 10 μL of bacterial suspension from each well were plated on horse blood agar plates and incubated at 37° C. for 48 h. The antibacterial activities of AMPs were evaluated.

S. mutans biofilms = format: cell-based
Experimental: Streptococcus mutans (ATCC 35668, ATCC, Manassas, USA) were cultured in Horse Blood Medium under anaerobic (85% N2, 10% H2, and 5% CO2) conditions at 37° C. Cells were harvested by centrifugation (5000 rpm, 10 min), washed once with 10 mM sodium phosphate-buffered saline (PBS, pH 7.2), and resuspended in brain-heart infusion broth (BHI, Difco Laboratories, Detroit, USA) at a concentration of 10^6 CFU/mL.
S. mutans biofilms were cultured on enamel working surfaces in a 96-well plate. Tooth slices (N=32) were autoclave-sterilized prior to anti-biofilm activity testing. 200 μL S. mutans in BHI (10^6 CFU/mL) was added to each well. After a 24-h incubation at 37° C., each tooth slice was washed once with PBS. […] (in 10 mM HEPES). After incubation, tooth slices were washed once with PBS. One tooth slice at random in each group was stained with the LIVE/DEAD BacLight Bacterial Viability Kit (L7012, Thermo Fisher Scientific, Waltham, USA) and incubated in the dark for 30 min. Fluorescence images were obtained using confocal laser scanning microscopy (CLSM, Fluoview 1000, Olympus, USA). A separate tooth slice was used for the counting of colony-forming units (CFU). Tooth slices were placed in 1 mL BHI solution, and adherent biofilms were removed from the enamel surfaces by sonication for 30 sec. Ten-fold serial dilutions of the suspensions were plated in duplicate on horse blood agar. CFU's were counted after 48-h incubation. Three independent biofilm experiments were performed.

[1] = Adsorption time assay on tooth enamel (Micro BCA); format: binding, human; conditions: 10 nmol/mL peptide, 37° C.
Experimental: 3×3×1.5 mm^3 (number: 197) tooth slices were prepared using a water-cooled diamond saw (IsoMet low-speed saw, Buehler, Lake Bluff, IL, USA). One working surface of complete enamel tissue from each tooth slice was generated using the MicroCT Skyscan 1172 (Bruker MicroCT, Kontich, Belgium). The enamel working side of the tooth slice was polished and other sides marked with acid-proof nail polish. All tooth slices were cleaned and stored in deionized water at 4° C.
Adsorption Time Assay The adsorption time of peptides to the tooth enamel was also tested using the Micro BCA method. Solutions of P-113, P-113-DPS, P-113-DA, and P-113-SK in 10 mM HEPES buffer (pH 7) were diluted to 10 nmol/mL. Enamel working surfaces of tooth slices (N=20) were exposed to P-113 solution (n=5), P-113-DPS solution (n=5), P-113-DA solution (n=5), and P-113-SK solution (n=5), respectively. The remaining extraneous surfaces were covered with wax. Tubes were placed into a rotator at 37° C. […] After a 30-min incubation, absorbance was measured. A function of C=a*A+b was determined (a and b are constants). The concentrations of the peptide solution at different time points (C0, C1, C2, C3, C4, and C5 at 0, 5, 20, 40, 60, and 120 min, respectively) were computed based on absorbances […].

Sequence: AKRHHGYKRKFH [Peptide P-113, non-specific AMP, portion of human histatin 5]
- MBC, S. gordonii (S. gordonii): >128 μM mL^−1
- S. mutans killed (biofilm) (S. mutans biofilms; 128 μmol/mL, 24 h exposure): 79%
- S. mutans killed (biofilm) (S. mutans biofilms; 160 μmol/mL): 87%
- CLSM live/dead state of S. mutans biofilm (S. mutans biofilms; 24 h, concentration not given): the majority of S. mutans in BHI and P-113 were alive
- Adsorption time on enamel (majority of adsorption / significant decrease in concentration) [1]: 60 min
